Measurements as given in US11479556B1, “Bifunctional compounds for degrading BTK via ubiquitin proteosome pathway” (NURIX THERAPEUTICS, INC., priority 2018, dated 2022).

Columns and labels:
BTK [1] = biological target: T1, BTK (Homo sapiens, UniProt Q06187); assay: Cellular BTK HTRF assay (BTK degradation) in TMD8 cells; assay type: cell-based; conditions: four hours incubation, Total-BTK HTRF relative to DMSO-treated cells
T1 construct: endogenous in cells; host or cells: TMD8 cells
In short: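 TMD8 cells were treated with compounds (final DMSO <0.200) for four hours at 37° C, 5% CO2, then lysed for 30 minutes. Total BTK was measured by two-antibody HTRF, taking the 665/620 nm ratio with background subtracted and expressed relative to DMSO-treated cells. DC50 came from four-parameter nonlinear regression.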

BTK [2] = biological target: T2, BTK (Mus musculus, UniProt P35991); assay: Mouse BTK degradation assay with oral dosing; assay type: in vivo; conditions: CD-1 or BALB/c mice, oral gavage (PO); Yes = significant BTK degradation upon oral dosage
T2 construct: from tissue; host or cells: whole blood or spleen of CD-1 or BALB/c mice
Protocol: Example 68: Mouse BTK Degradation Assay with Oral Dosing
A method of determining the pharmacodynamic profile of compounds of the present invention (experimental compound) was performed by dosing either CD-1 or BALB/c mice with the compound. The experimental compound was prepared in a suitable formulation and was administered via oral gavage (PO) at a suitable dose level and frequency as informed by prior pharmacokinetic and tolerability studies. Following administration of the experimental compound, BTK levels in blood or splenocytes are measured using flow cytometry or HTRF. For assessment of BTK levels via flow cytometry, either whole blood or spleen were first treated with ACK RBC lysis buffer to facilitate lysing of red blood cells. Remaining cells were then stained with fluorophore-conjugated antibodies against CD45, TCR beta and CD45R (B220). Cell pellets were washed with 1×PBS and fixed and permeabilized for 24 hrs with Foxp3/Transcription Factor Fixation/Permeabilization Kit. Cells were then stained intracellularly with unconjugated BTK antibody and detected with a fluorophore-conjugated secondary antibody. Stained cells were run on an Attune NxT Acoustic Focusing Flow Cytometer (Thermo-Fisher A29004), and data was analyzed using FlowJo (v10.5.3) and GraphPad Prism (v7.00) software. Lymphocytes were gated for B cells defined as CD45+ TCR beta− B220+ and T cells as CD45+ TCR beta+ B220−. The BTK geometric mean fluorescence intensity (MFI) was calculated for B and T cells. Percent BTK degradation for each experimental compound treated sample was calculated using the equation described below: […]

Aiolos = biological target: T3, Aiolos (Homo sapiens, UniProt Q96SW2+Q9UKT9); assay: Aiolos degradation flow cytometry assay in human PBMCs (T cells); assay type: cell-based; conditions: 24 hours, T cells (CD3+CD20-), read-out: Aiolos T Cell DC50
T3 construct: Frozen human peripheral blood mononuclear cells (PBMCs) were thawed and treated with DMSO or compound for 24 hours; endogenous in cells; host or cells: human PBMCs (T cells gated CD3+CD20-)
Protocol: Example 67: Aiolos Degradation Assay
Frozen human peripheral blood mononuclear cells (PBMCs) were thawed and treated with DMSO or compound for 24 hours and then fixed and permeabilized using a Foxp3/Transcription Factor Fixation/Permeabilization Kit (eBioscience, 00-5523). Cells were stained with fluorophore-conjugated antibodies against CD20 (Biolegend 302330), CD3 (BD Pharmingen 552127), and Aiolos (Biolegend 371106). An additional set of DMSO-treated PBMCs was stained for CD20, CD3, and an AlexaFluor 647-conjugated mouse IgG1 isotype control antibody (Biolegend 400136). Stained cells were analyzed using an Attune NxT Acoustic Focusing Flow Cytometer (Thermo-Fisher A29004), and data was analyzed using FlowJo (v10.5.3) and GraphPad Prism (v7.00) software. Single lymphocytes were gated for B cells (CD20+CD3−) and T cells (CD3+CD20−), and the geometric mean fluorescence intensity (MFI) of Aiolos was calculated for each population. The MFI of the isotype control was calculated for each population and used to quantify background staining. Percent Aiolos degradation was calculated for each compound-treated sample using the following equation: […]
Four-parameter non-linear regressions were performed in GraphPad Prism 7.02 to obtain DC50 values. Aiolos T Cell DC50 values are provided in Table 4, wherein A<10.0 nM, 10.0 nM≤B≤1000 nM, and 1000 nM<C.

T3 sequence (Q9UKT9 whole entry): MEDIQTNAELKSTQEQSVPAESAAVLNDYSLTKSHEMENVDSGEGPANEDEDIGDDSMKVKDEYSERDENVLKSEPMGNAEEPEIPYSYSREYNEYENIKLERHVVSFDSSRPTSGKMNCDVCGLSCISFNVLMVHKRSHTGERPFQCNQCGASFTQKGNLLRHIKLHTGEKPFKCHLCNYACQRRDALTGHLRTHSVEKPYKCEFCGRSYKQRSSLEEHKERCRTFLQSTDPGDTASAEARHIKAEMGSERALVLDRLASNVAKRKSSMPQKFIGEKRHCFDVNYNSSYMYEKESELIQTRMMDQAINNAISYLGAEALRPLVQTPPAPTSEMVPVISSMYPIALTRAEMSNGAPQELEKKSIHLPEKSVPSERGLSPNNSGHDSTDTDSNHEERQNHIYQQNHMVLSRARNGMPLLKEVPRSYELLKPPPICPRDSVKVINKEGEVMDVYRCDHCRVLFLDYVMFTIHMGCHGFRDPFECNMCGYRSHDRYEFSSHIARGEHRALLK
T3 sequence (Q96SW2 whole entry): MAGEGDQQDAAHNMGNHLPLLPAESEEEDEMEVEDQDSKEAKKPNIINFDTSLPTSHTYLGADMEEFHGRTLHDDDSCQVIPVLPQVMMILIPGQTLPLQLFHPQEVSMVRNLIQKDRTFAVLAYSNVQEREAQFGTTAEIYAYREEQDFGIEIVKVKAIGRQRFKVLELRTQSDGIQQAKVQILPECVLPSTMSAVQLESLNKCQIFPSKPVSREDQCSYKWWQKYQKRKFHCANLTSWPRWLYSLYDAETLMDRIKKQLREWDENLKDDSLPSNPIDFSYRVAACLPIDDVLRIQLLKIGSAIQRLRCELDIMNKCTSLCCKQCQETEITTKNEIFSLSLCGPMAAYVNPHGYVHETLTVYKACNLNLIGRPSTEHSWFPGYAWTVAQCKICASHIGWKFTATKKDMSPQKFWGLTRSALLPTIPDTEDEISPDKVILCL
T3 sequence (Q16531 whole entry partner): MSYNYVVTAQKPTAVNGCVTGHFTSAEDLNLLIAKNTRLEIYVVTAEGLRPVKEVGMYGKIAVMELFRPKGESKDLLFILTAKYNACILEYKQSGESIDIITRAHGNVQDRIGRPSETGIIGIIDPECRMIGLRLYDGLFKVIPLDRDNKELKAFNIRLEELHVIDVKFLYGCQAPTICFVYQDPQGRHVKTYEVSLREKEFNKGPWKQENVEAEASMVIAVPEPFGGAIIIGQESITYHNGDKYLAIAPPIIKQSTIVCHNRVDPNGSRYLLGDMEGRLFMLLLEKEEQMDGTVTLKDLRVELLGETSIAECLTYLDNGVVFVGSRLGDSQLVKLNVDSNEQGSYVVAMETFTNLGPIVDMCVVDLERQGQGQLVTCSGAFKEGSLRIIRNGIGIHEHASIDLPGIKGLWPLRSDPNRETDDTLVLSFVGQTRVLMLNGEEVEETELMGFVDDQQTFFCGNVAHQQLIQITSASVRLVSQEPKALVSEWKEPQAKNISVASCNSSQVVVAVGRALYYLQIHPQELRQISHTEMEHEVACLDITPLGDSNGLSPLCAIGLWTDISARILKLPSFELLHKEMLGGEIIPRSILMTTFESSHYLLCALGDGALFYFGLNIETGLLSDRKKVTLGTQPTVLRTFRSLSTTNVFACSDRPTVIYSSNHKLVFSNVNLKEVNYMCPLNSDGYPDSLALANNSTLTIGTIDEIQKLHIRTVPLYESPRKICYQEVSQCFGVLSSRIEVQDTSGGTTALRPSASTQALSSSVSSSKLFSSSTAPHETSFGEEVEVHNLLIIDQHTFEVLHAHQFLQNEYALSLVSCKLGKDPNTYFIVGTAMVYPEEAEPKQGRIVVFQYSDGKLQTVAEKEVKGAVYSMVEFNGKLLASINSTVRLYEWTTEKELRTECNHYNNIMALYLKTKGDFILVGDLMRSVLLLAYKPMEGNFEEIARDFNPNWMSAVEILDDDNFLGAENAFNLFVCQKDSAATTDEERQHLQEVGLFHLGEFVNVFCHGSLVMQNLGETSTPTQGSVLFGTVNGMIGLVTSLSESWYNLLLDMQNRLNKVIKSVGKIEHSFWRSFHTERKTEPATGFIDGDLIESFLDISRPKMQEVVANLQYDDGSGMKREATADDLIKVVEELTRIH
T1 sequence (Q06187 whole entry): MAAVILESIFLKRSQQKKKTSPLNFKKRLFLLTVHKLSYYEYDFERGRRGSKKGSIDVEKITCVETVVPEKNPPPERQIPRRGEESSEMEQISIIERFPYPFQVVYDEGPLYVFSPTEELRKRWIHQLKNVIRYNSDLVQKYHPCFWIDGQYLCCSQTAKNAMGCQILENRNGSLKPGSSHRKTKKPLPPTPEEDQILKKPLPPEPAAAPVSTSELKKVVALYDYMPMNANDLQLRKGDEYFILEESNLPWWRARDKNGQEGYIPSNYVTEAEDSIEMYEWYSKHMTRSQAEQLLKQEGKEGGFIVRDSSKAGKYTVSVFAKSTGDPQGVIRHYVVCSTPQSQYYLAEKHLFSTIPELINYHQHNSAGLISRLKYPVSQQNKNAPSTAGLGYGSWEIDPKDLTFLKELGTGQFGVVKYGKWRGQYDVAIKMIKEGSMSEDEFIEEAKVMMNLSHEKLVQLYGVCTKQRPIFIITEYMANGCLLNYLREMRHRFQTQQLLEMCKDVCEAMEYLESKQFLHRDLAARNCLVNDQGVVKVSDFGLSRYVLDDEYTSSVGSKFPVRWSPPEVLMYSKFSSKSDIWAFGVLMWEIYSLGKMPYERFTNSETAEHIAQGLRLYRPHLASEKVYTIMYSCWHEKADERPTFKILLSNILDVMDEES
T2 sequence (P35991 whole entry): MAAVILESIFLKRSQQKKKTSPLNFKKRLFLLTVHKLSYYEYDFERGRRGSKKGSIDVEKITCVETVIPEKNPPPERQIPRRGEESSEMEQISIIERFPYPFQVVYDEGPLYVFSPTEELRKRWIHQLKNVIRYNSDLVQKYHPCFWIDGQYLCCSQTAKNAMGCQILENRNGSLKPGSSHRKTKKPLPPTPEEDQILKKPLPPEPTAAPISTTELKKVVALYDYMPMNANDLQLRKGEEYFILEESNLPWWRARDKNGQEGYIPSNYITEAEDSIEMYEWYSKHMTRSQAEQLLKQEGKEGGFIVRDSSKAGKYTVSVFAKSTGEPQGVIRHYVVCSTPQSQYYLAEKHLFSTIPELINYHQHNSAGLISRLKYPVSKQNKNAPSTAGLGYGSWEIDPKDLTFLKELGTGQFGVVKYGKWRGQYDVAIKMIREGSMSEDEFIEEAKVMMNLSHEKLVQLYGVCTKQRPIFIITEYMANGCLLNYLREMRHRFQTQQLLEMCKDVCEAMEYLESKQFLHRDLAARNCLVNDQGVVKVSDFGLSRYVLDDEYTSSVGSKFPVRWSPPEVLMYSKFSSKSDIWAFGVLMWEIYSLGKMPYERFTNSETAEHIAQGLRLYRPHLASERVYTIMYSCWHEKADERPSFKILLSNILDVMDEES

| Compound | DC50 (BTK [1]) [µM] | BTK degradation after oral dosing (BTK [2]) | DC50 (Aiolos) [µM] |
| --- | --- | --- | --- |
| Cn1cc(Nc2nc(N3CCC[C@H](N4CC5(CN(CC6CCN(c7ccc(C(=O)NC8CCC(=O)NC8=O)nc7)CC6)C5)OC4=O)C3)cnc2C(N)=O)cn1 (some centres unmarked) [Compound 131] | < 0.005 | Yes | – |
| NC(=O)c1ncc(N2CCC[C@H](N3CCOC3=O)C2)nc1Nc1ccc(N2CCC(C3CN(c4ccc5c(c4)C(=O)N(C4CCC(=O)NC4=O)C5=O)C3)CC2)cc1 (some centres unmarked) [Compound 70] | < 0.005 | Yes | – |
| CN1CCN([C@@H]2CCCN(c3cnc(C(N)=O)c(Nc4ccc(N5CCN(C(=O)CCOCCCc6ccc7c(c6)C(=O)N(C6CCC(=O)NC6=O)C7)CC5)cc4)n3)C2)C1=O (some centres unmarked) [Compound 61] | < 0.005 | – | > 1 |
| NC(=O)c1ncc(N2CCCCC2)nc1Nc1ccc(N2CCC3(CCN(Cc4ccc5c(c4)C(=O)N(C4CCC(=O)NC4=O)C5=O)CC3)CC2)cc1 (centres unmarked) [Compound 123] | 0.005 to 0.015 | – | > 1 |
| CN1CCN([C@@H]2CCCN(c3cnc(C(N)=O)c(Nc4ccc(C5(C)CCN(C[C@H]6CCN(c7ccc8c(c7)C(=O)N(C7CCC(=O)NC7=O)C8=O)C6)CC5)cc4)n3)C2)C1=O (some centres unmarked) [Compound 71] | < 0.005 | Yes | – |
| CN1CCN([C@@H]2CCCN(c3cnc(C(N)=O)c(Nc4ccc(OCCCNc5ccc6c(c5)C(=O)N(C5CCC(=O)NC5=O)C6=O)cc4)n3)C2)C1=O (some centres unmarked) [Compound 64] | > 0.015 | – | 0.01 to 1 |
| CN1CCN([C@@H]2CCCN(c3cnc(C(N)=O)c(Nc4ccc(C5(C)CCN(C(=O)CCOCCC(=O)Nc6cccc7c6CN(C6CCC(=O)NC6=O)C7=O)CC5)cc4)n3)C2)C1=O (some centres unmarked) [Compound 14] | > 0.015 | – | > 1 |
| NC(=O)c1ncc(-c2nccs2)nc1Nc1ccc(N2CCC3(CCN(Cc4ccc5c(c4)C(=O)N(C4CCC(=O)NC4=O)C5=O)CC3)CC2)cc1 (centres unmarked) [Compound 150] | 0.005 to 0.015 | Yes | – |
| CN1CCN([C@@H]2CCCN(c3cnc(C(N)=O)c(Nc4ccc(C5(C)CCN(C6CN(Cc7ccc8c(c7)C(=O)N(C7CCC(=O)NC7=O)C8=O)C6)CC5)cc4)n3)C2)C1=O (some centres unmarked) [Compound 75] | < 0.005 | – | > 1 |
| NC(=O)c1ncc(N2CCC[C@@H](N3CCOC3=O)C2)nc1Nc1ccc(C2CCN(C[C@H]3CCN(c4ccc5c(c4)C(=O)N(C4CCC(=O)NC4=O)C5=O)C3)CC2)cc1 (some centres unmarked) [Compound 73] | < 0.005 | Yes | – |
| CN1CCN([C@H]2CCCN(c3cnc(C(N)=O)c(Nc4ccc(C5(C)CCN(C6CN(c7ccc8c(c7)C(=O)N(C7CCC(=O)NC7=O)C8=O)C6)CC5)cc4)n3)C2)C1=O (some centres unmarked) [Compound 74] | < 0.005 | Yes | – |
| CN1CCN([C@@H]2CCCN(c3cnc(C(N)=O)c(Nc4ccc(C5CCN(C[C@H]6CCN(c7ccc8c(c7)C(=O)N(C7CCC(=O)NC7=O)C8=O)C6)CC5)cc4)n3)C2)C1=O (some centres unmarked) [Compound 44] | < 0.005 | Yes | – |
| CN1CCN([C@@H]2CCCN(c3cnc(C(N)=O)c(Nc4ccc(C5CN(C6CCN(c7ccc8c(c7)C(=O)N(C7CCC(=O)NC7=O)C8=O)CC6)C5)cc4)n3)C2)C1=O (some centres unmarked) [Compound 37] | < 0.005 | – | 0.01 to 1 |
| CN1CCN([C@@H]2CCCN(c3cnc(C(N)=O)c(Nc4ccc(C5CCN(CC6CCN(c7ccc8c(c7)n(C)c(=O)n8C7CCC(=O)NC7=O)CC6)CC5)cc4)n3)C2)C1=O (some centres unmarked) [Compound 156] | < 0.005 | – | < 0.01 |
| CN1CCN([C@H]2CCCN(c3cnc(C(N)=O)c(Nc4cnn(C5CCN(CC6CN(c7ccc8c(c7)C(=O)N(C7CCC(=O)NC7=O)C8=O)C6)CC5)c4)n3)C2)C1=O (some centres unmarked) [Compound 78] | < 0.005 | – | 0.01 to 1 |

Further lines, results first:

| DC50 (BTK [1]) [µM] | BTK degradation after oral dosing (BTK [2]) | DC50 (Aiolos) [µM] | Compound |
| --- | --- | --- | --- |
| < 0.005 | Yes | – | CN1CCN([C@@H]2CCCN(c3cnc(C(N)=O)c(Nc4ccc(C5CCN(CC6CCN(c7ccc8c(=O)n(C9CCC(=O)NC9=O)ccc8c7)CC6)CC5)cc4)n3)C2)C1=O (some centres unmarked) [Compound 72] |
| < 0.005 | – | > 1 | CN1CCN([C@@H]2CCCN(c3cnc(C(N)=O)c(Nc4ccc(N5CCC6(CCCN(c7ccc8c(c7)C(=O)N(C7CCC(=O)NC7=O)C8=O)C6)CC5)cc4)n3)C2)C1=O (some centres unmarked) [Compound 29] |
| 0.005 to 0.015 | – | > 1 | CN1CCN(c2cnc(C(N)=O)c(Nc3ccc(C4CCN(C[C@H]5CCN(c6ccc7c(c6)C(=O)N(C6CCC(=O)NC6=O)C7=O)C5)CC4)cc3)n2)CC1 (some centres unmarked) [Compound 157] |
| < 0.005 | – | 0.01 to 1 | CN1CCN([C@@H]2CCCN(c3cnc(C(N)=O)c(Nc4ccc(C5CCN(CC6CCN(c7ccc8c(c7)C(=O)N(C7CCC(=O)NC7=O)C8=O)CC6)CC5)cc4)n3)C2)C1=O (some centres unmarked) [Compound 51] |
| 0.005 to 0.015 | – | < 0.01 | CN1CCN([C@H]2CCCN(c3cnc(C(N)=O)c(Nc4ccc5c(c4)CCN(CC4CN(c6ccc7c(c6)C(=O)N(C6CCC(=O)NC6=O)C7=O)C4)C5)n3)C2)C1=O (some centres unmarked) [Compound 92] |
| < 0.005 | – | 0.01 to 1 | CN1CCN([C@@H]2CCCN(c3cnc(C(N)=O)c(Nc4ccc(C5CCN(CCCNc6cccc7c6C(=O)N(C6CCC(=O)NC6=O)C7=O)CC5)cc4)n3)C2)C1=O (some centres unmarked) [Compound 155] |
| < 0.005 | – | 0.01 to 1 | CN1CCN([C@@H]2CCCN(c3cnc(C(N)=O)c(Nc4ccc(C5CCN(C6CN(c7ccc8c(c7)C(=O)N(C7CCC(=O)NC7=O)C8=O)C6)CC5)cc4)n3)C2)C1=O (some centres unmarked) [Compound 53] |
| < 0.005 | – | > 1 | CN1CCN([C@H]2CCCN(c3cnc(C(N)=O)c(Nc4ccc(N5CCN(CC#Cc6cccc7c6CN(C6CCC(=O)NC6=O)C7=O)CC5)cc4)n3)C2)C1=O (some centres unmarked) [Compound 99] |
| < 0.005 | – | 0.01 to 1 | CN1CCN([C@@H]2CCCN(c3cnc(C(N)=O)c(Nc4ccc5c(c4)CCN(CC4CCN(c6ccc7c(c6)C(=O)N(C6CCC(=O)NC6=O)C7=O)CC4)C5)n3)C2)C1=O (some centres unmarked) [Compound 31] |
| < 0.005 | – | 0.01 to 1 | CN1CCN([C@@H]2CCCN(c3cnc(C(N)=O)c(Nc4ccc(N5CCN(CCCCc6cccc7c6CN(C6CCC(=O)NC6=O)C7=O)CC5)cc4)n3)C2)C1=O (some centres unmarked) [Compound 17] |
